Columns and labels:
[1] = biological target: T1, CYP2D6 (Homo sapiens, UniProt P10635); test: Inhibition of CYP2D6 in pooled human hepatic microsomes assessed as remaining enzyme activity at 0.225 uM using […] substrate in presence of NADPH; type: ADME; conditions: pooled human liver microsomes, probe […], read-out: Activity
[2] = biological target: T1, CYP2D6; test: Inhibition of CYP2D6 in pooled human hepatic microsomes at 10 uM using dextromethorphan substrate in presence of NADPH; type: ADME; conditions: pooled human liver microsomes, probe dextromethorphan
[3] = Permeability in human Caco2/TC7 cells assessed as total flux at 20 uM incubated for 2 hrs by LC-MS/MS method; type: ADME, cell-based; conditions: Caco-2, read-out: permeability
[4] = biological target: T2, Sodium/hydrogen exchanger 3 (Homo sapiens, UniProt P48764); test: Inhibition of human NHE3 expressed in LAP1 cell assessed as intracellular pH recovery measured for 2 mins by CECF-AM dye based FLIPR assay
T2 sequence (P48764 whole entry): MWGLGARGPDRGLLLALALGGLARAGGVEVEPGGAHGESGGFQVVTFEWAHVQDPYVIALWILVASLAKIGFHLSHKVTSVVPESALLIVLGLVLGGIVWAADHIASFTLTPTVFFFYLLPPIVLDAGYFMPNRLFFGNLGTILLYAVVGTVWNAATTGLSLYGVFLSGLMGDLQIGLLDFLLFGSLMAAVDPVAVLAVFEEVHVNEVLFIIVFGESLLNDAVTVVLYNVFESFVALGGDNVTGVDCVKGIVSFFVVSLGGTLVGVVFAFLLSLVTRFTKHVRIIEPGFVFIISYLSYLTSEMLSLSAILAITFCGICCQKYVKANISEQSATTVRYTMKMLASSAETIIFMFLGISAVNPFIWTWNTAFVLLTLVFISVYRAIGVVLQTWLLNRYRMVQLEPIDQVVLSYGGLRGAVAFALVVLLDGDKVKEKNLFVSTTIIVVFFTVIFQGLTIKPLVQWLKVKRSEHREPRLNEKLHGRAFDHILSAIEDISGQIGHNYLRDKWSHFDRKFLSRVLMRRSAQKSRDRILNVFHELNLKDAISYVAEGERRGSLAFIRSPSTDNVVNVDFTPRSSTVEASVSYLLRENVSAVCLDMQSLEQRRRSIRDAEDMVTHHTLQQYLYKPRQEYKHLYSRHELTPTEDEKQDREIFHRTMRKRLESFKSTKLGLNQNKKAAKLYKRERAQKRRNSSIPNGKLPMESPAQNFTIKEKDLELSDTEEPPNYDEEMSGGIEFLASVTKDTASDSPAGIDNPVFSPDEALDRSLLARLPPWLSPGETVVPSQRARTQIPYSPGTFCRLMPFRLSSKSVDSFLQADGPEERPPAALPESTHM

[5] = biological target: Cytochrome P450 2D6 (Homo sapiens, UniProt P10635)
Chain of Cytochrome P450 2D6 (P10635 whole entry): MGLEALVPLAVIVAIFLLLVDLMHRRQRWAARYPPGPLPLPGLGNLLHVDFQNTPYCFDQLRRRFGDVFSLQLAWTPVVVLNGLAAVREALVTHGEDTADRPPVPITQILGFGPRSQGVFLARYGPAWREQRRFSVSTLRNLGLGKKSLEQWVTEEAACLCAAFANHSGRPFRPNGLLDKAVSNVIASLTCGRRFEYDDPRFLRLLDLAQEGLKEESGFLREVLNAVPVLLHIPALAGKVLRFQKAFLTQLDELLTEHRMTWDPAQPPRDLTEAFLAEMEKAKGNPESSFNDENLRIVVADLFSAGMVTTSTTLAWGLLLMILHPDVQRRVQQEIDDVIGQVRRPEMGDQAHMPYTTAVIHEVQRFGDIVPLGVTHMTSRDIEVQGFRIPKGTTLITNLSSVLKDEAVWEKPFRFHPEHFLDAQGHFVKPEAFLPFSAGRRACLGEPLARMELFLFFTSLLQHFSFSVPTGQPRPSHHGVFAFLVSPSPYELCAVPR
Description: Inhibition of CYP2D6 in pooled human hepatic microsomes using dextromethorphan substrate in presence of NADPH

[6] = biological target: Cytochrome P450 3A4 (Homo sapiens, UniProt P08684); test: Inhibition of CYP3A4 in pooled human hepatic microsomes using testosterone substrate in presence of NADPH; type: ADME, Liver
Chain of Cytochrome P450 3A4 (P08684 whole entry): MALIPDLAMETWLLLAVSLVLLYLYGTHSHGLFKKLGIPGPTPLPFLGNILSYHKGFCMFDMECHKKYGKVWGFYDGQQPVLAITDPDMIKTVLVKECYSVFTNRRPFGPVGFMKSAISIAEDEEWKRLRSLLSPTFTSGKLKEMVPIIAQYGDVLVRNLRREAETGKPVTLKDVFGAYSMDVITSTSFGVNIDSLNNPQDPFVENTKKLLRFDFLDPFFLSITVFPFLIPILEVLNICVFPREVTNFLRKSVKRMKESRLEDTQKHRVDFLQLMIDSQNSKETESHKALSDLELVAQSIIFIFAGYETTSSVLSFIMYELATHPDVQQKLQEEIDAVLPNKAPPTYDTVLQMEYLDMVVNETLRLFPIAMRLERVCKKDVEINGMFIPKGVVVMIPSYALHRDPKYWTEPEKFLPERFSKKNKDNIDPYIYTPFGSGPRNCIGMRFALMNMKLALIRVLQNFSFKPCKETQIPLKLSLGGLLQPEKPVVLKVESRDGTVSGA

T1 sequence (P10635 whole entry): as the sequence (P10635 whole entry) above

| Compound | activity at 0.225 µM [1] | inhibition at 10 µM [2] | Papp at 2 h, 20 µM [3] | IC50 [4] | IC50 [5] | IC50 [6] |
| --- | --- | --- | --- | --- | --- | --- |
| C=C[C@H]1C[N@@]2CC[C@H]1C[C@@H]2[C@@H](O)c1ccnc2ccc(OC)cc12 [QUINIDINE] | 21% |  |  |  |  |  |
| Cc1nnc(C)n1-c1ccc(O[C@H]2c3cc(Cl)cc(Cl)c3C[C@@H]2N2CC[C@@H](O)C2)c(F)c1 |  | 17% | 2.8 ×10⁻⁶ cm/s | 34 nM | > 10 µM | > 50 µM |
| Cc1nnc(C)n1-c1ccc(O[C@H]2c3cc(Cl)cc(Cl)c3C[C@@H]2N2CCCNCC2)cc1 |  | 25% | 0.3 ×10⁻⁶ cm/s | 23 nM | > 10 µM |  |

— ChEMBL document CHEMBL3860060, “Discovery and Optimization of 1-Phenoxy-2-aminoindanes as Potent, Selective, and Orally Bioavailable Inhibitors of the Na+/H+ Exchanger Type 3 (NHE3)” (J Med Chem, 2016)
